Source: patent US10723741B1, “DNA polymerase IIIC inhibitors and use thereof” (Acurx Pharmaceuticals, LLC, priority 2018, dated 2020)
In brackets after ≈: the same amount, converted by molar mass. Structures can show the parent of a compound that is named as a salt. Where two headings read alike, the source gives them in different places.

How the values were obtained:
Type in all cases: cell-based
[1] = system: Bacillus subtilis ATCC 6633; test: Broth microdilution MIC, B. subtilis ATCC 6633; conditions: read-out: MIC B. subtilis ATCC 6633
Method in brief: (§1)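 Two-fold dilutions from 64 to 0.0625 μg/ml final, 1% DMSO, were inoculated at ~5.0×10^5 cfu/ml in the strain's test medium and kept 20 h at 37 °C in ambient atmosphere. Colonies were grown on MHA, with S. pneumoniae on blood agar under 5% CO2.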

[2] = system: Escherichia coli ATCC 25922; test: Broth microdilution MIC, E. coli ATCC 25922 (MHIIB w & w/o 4 mM EDTA); conditions: for MIC: Escherichia coli, read-out: MIC E. coli ATCC 25922; for MIC E. coli ATCC 25922 + 4 mM EDTA: with 4 mM EDTA
Method in brief: as §1

[3] = system: Streptococcus pneumoniae ATCC 49619; test: Broth microdilution MIC, S. pneumoniae ATCC 49619; conditions: read-out: MIC S. pneumoniae ATCC 49619
Method in brief: as §1

[4] = system: Staphylococcus aureus ATCC 29213 (MSSA); test: Broth microdilution MIC, S. aureus ATCC 29213 (MSSA); conditions: read-out: MIC S. aureus ATCC 29213 (MSSA)
Method in brief: as §1

[5] = system: Enterococcus faecium ATCC 700221 (VRE); test: Broth microdilution MIC, E. faecium ATCC 700221 (VRE); conditions: Enterococcus faecium, read-out: MIC E. faecium ATCC 700221 (VRE)
Method in brief: as §1

[6] = system: Staphylococcus aureus NRS384 (MRSA); test: Broth microdilution MIC, S. aureus NRS384 (MRSA); conditions: Staphylococcus aureus, read-out: MIC NRS 384 (MRSA)
Method in brief: as §1

[7] = system: Enterococcus faecalis ATCC 29212; test: Broth microdilution MIC, E. faecalis ATCC 29212; conditions: read-out: MIC E. faecalis ATCC 29212
Method in brief: as §1

[8] = ATCC6633, broth microdilution, 37° C., 20 hours
[9] = ATCC25922, without EDTA, broth microdilution, 37° C., 20 hours
[10] = broth microdilution, 37° C., 20 hours
[11] = ATCC49619, broth microdilution, 37° C., 20 hours
[12] = ATCC29212, broth microdilution, 37° C., 20 hours

Structure (SMILES)	MIC [1, 8] [µg/mL]	MIC [2, 9] [µg/mL]	MIC E. coli ATCC 25922 + 4 mM EDTA [2, 10]	MIC [3, 11] [µg/mL]	MIC [4, 10] [µg/mL]	MIC [5, 10] [µg/mL]	MIC [6, 10] [µg/mL]	MIC [7, 12] [µg/mL]	MIC ([1]; ATCC6633, 20 h) [µg/mL]	MIC ([2]; ATCC25922, 20 h) [µg/mL]	MIC ([3]; ATCC49619, 20 h) [µg/mL]	MIC ([4]; 20 h) [µg/mL]	MIC ([5]; 20 h) [µg/mL]	MIC ([6]; 20 h) [µg/mL]	MIC ([7]; ATCC29212, 20 h) [µg/mL]
Cl.O=C(O)C1(Cn2ncc3nc(NCc4ccc(Cl)c(Cl)c4)[nH]c(=O)c32)CCNCC1 [Compound 196, 4-((5-((3,4-dichlorobenzyl)amino)-7-oxo-6,7-dihydro-1H-pyrazolo[4,3-d]pyrimidin-1-yl)methyl)piperidine-4-carboxylic acid hydrochloride]	> 64	> 64	>64 µg/mL	> 64	> 64	> 64	> 64	> 64							
C[Si](C)(C)CCOCNC(=O)Cn1ncc2nc(NCc3ccc(Cl)c(Cl)c3)[nH]c(=O)c21 [Compound 197, 2-(5-((3,4-dichlorobenzyl)amino)-7-oxo-6,7-dihydro-1H-pyrazolo[4,3-d]pyrimidin-1-yl)-N-((2-(trimethylsilyl)ethoxy)methyl)acetamide]	> 64	> 64	>64 µg/mL	> 64	> 64	> 64	> 64	> 64							
CNC(=O)C(C)(C)CCCn1ncc2nc(NCc3ccc(Cl)c(Cl)c3)[nH]c(=O)c21 [Compound 198, 5-(5-((3,4-dichlorobenzyl)amino)-7-oxo-6,7-dihydro-1H-pyrazolo[4,3-d]pyrimidin-1-yl)-N,2,2-trimethylpentanamide]	4 (≈ 8.86 µM)	> 64	>64 µg/mL	16 (≈ 35.4 µM)	16 (≈ 35.4 µM)	16 (≈ 35.4 µM)	16 (≈ 35.4 µM)	16 (≈ 35.4 µM)							
CC(C)(CCCn1ncc2nc(NCc3ccc(Cl)c(Cl)c3)[nH]c(=O)c21)C(=O)O [Compound 199, 5-(5-((3,4-Dichlorobenzyl)amino)-7-oxo-6,7-dihydro-1H-pyrazolo[4,3-d]pyrimidin-1-yl)-2,2-dimethylpentanoic acid]	32 (≈ 73 µM)	> 64	>64. ug/ml	8 (≈ 18.3 µM)	16 (≈ 36.5 µM)	8 (≈ 18.3 µM)	16 (≈ 36.5 µM)	16 (≈ 36.5 µM)							
CNC(=O)C(CCCn1ncc2nc(NCc3ccc(Cl)c(Cl)c3)[nH]c(=O)c21)c1ccccc1 (stereo not shown) [Compound 200, 5-(5-((3,4-dichlorobenzyl)amino)-7-oxo-6,7-dihydro-1H-pyrazolo[4,3-d]pyrimidin-1-yl)-N-methyl-2-phenylpentanamide]	2 (≈ 4 µM)	> 64	>64 µg/mL	16 (≈ 32 µM)	8 (≈ 16 µM)	8 (≈ 16 µM)	8 (≈ 16 µM)	16 (≈ 32 µM)							
O=C(O)C(CCCn1ncc2nc(NCc3ccc(Cl)c(Cl)c3)[nH]c(=O)c21)c1ccccc1 (stereo not shown) [Compound 201, 5-(5-((3,4-dichlorobenzyl)amino)-7-oxo-6,7-dihydro-1H-pyrazolo[4,3-d]pyrimidin-1-yl)-2-phenylpentanoic acid]	64 (≈ 132 µM)	> 64	>64. ug/ml	16 (≈ 32.9 µM)	32 (≈ 65.8 µM)	16 (≈ 32.9 µM)	32 (≈ 65.8 µM)	32 (≈ 65.8 µM)							
CC(CCCn1ncc2nc(NCc3ccc(Cl)c(Cl)c3)[nH]c(=O)c21)C(=O)O (stereo not shown) [Compound 202, 5-(5-((3,4-dichlorobenzyl)amino)-7-oxo-6,7-dihydro-1H-pyrazolo[4,3-d]pyrimidin-1-yl)-2-methylpentanoic acid]	32 (≈ 75.4 µM)	> 64	>64 µg/mL	8 (≈ 18.9 µM)	32 (≈ 75.4 µM)	16 (≈ 37.7 µM)	32 (≈ 75.4 µM)	32 (≈ 75.4 µM)							
CCOC(=O)CCCCn1ncc2nc(NCc3ccc(Cl)c(Cl)c3)[nH]c(=O)c21 [Compound 203, ethyl 5-(5-((3,4-dichlorobenzyl)amino)-7-oxo-6,7-dihydro-1H-pyrazolo[4,3-d]pyrimidin-1-yl)pentanoate]	0.5 (≈ 1.14 µM)	> 64	>64 µg/mL	8 (≈ 18.3 µM)	2 (≈ 4.56 µM)	2 (≈ 4.56 µM)	2 (≈ 4.56 µM)	> 64							
CC(C)OC(=O)CCCCn1ncc2nc(NCc3ccc(Cl)c(Cl)c3)[nH]c(=O)c21 [Compound 204, isopropyl 5-(5-((3,4-dichlorobenzyl)amino)-7-oxo-6,7-dihydro-1H-pyrazolo[4,3-d]pyrimidin-1-yl)pentanoate]	1 (≈ 2.21 µM)	> 64	>64 µg/mL	16 (≈ 35.4 µM)	4 (≈ 8.84 µM)	2 (≈ 4.42 µM)	2 (≈ 4.42 µM)	> 64							
CCOC(=O)CCCn1ncc2nc(NCc3ccc(Cl)c(Cl)c3)[nH]c(=O)c21 [Compound 205, ethyl 4-(5-((3,4-dichlorobenzyl)amino)-7-oxo-6,7-dihydro-1H-pyrazolo[4,3-d]pyrimidin-1-yl)butanoate]	1 (≈ 2.36 µM)	> 64	>64 µg/mL	8 (≈ 18.9 µM)	4 (≈ 9.43 µM)	2 (≈ 4.71 µM)	2 (≈ 4.71 µM)	4 (≈ 9.43 µM)							
CC(C)OC(=O)CCCn1ncc2nc(NCc3ccc(Cl)c(Cl)c3)[nH]c(=O)c21 [Compound 206, isopropyl 4-(5-((3,4-dichlorobenzyl)amino)-7-oxo-6,7-dihydro-1H-pyrazolo[4,3-d]pyrimidin-1-yl)butanoate]	1 (≈ 2.28 µM)	> 64	>64 µg/mL	16 (≈ 36.5 µM)	> 64	4 (≈ 9.13 µM)	> 64	> 64							
O=c1[nH]c(NCc2ccc(Cl)c(Cl)c2)nc2cnn(C[C@@H]3CO[C@@H](CO)CO3)c12 [Compound 207, 5-((3,4-dichlorobenzyl)amino)-1-(((2R,5S)-5-(hydroxymethyl)-1,4-dioxan-2-yl)methyl)-1H-pyrazolo[4,3-d]pyrimidin-7(6H)-one]	2 (≈ 4.54 µM)	> 64	>64 µg/mL	8 (≈ 18.2 µM)	16 (≈ 36.3 µM)	4 (≈ 9.08 µM)	16 (≈ 36.3 µM)	8 (≈ 18.2 µM)							
O=c1[nH]c(NCc2ccc(Cl)c(Cl)c2)nc2cnn(C[C@@H]3CO[C@H](CO)CO3)c12 [Compound 208, 5-((3,4-dichlorobenzyl)amino)-1-(((2R,5R)-5-(hydroxymethyl)-1,4-dioxan-2-yl)methyl)-1H-pyrazolo[4,3-d]pyrimidin-7(6H)-one]	2 (≈ 4.54 µM)	> 64	>64 µg/mL	8 (≈ 18.2 µM)	16 (≈ 36.3 µM)	4 (≈ 9.08 µM)	16 (≈ 36.3 µM)	8 (≈ 18.2 µM)							
O=C(O)CCCCn1nc(F)c2nc(NCc3ccc(Cl)c(Cl)c3)[nH]c(=O)c21 [Compound 209, 5-(5-((3,4-dichlorobenzyl)amino)-3-fluoro-7-oxo-6,7-dihydro-1H-pyrazolo[4,3-d]pyrimidin-1-yl)pentanoic acid]	4 (≈ 9.34 µM)	> 64	>64 µg/mL	4 (≈ 9.34 µM)	8 (≈ 18.7 µM)	1 (≈ 2.34 µM)	16 (≈ 37.4 µM)	4 (≈ 9.34 µM)							
O=C(O)CCCCn1nc(F)c2nc(NCc3ccc(F)c(F)c3)[nH]c(=O)c21 [Compound 210, 5-(5-((3,4-Difluorobenzyl)amino)-3-fluoro-7-oxo-6,7-dihydro-1H-pyrazolo[4,3-d]pyrimidin-1-yl)pentanoic acid]	64 (≈ 162 µM)	> 64	>64 µg/mL	16 (≈ 40.5 µM)	32 (≈ 80.9 µM)	16 (≈ 40.5 µM)	64 (≈ 162 µM)	32 (≈ 80.9 µM)							
O=c1[nH]c(NCc2ccc(Cl)c(Cl)c2)nc2cn(C3CCNC3)nc12 (stereo not shown) [Compound 215, 5-((3,4-Dichlorobenzyl)amino)-2-(pyrrolidin-3-yl)-2H-pyrazolo[4,3-d]pyrimidin-7(6H)-one TFA salt]			64 µg/mL						64	> 64	16	> 64	> 64	> 64	> 64
O=c1[nH]c(NCc2ccc(Cl)c(Cl)c2)nc2cnn(C3CCNC3)c12 (stereo not shown) [Compound 216, 5-((3,4-dichlorobenzyl)amino)-1-(pyrrolidin-3-yl)-1H-pyrazolo[4,3-d]pyrimidin-7(6H)-one TFA salt]			>64 µg/mL						4	> 64	4	16	16	16	16
